Measurements published in patent US6376649B1, “Methods for the synthesis of α- hydroxy-β-amino acid and amide derivatives” (Corvas International, Inc., priority 1998, dated 2002).

Target: thrombin (Homo sapiens, UniProt P00734)
Assay: standard in vitro assays of thrombin inhibitory activity and selectivity
Type: biochemical
Settings: standard in vitro assays designed to measure inhibitory activity and selectivity toward thrombin versus other proteases

thrombin inhibitory activity: thrombin inhibitory activity
Substance: BnSO2-7Lac—G—R(.TFA)(CO))—Gly—OEt [16-5]
